Some test systems named below: ACHN; SF-539; SK-OV-3; SNB-75; TK-10; SF-295; SNB-19; HCT-116; MOLT-4; K562; UO-31; CCRF-CEM; RXF 393; CAKI-1; 786-0; HT-29; U-251; RPMI-8226; HL-60.
Holding throughout (experiment): inhibition of tumour cell growth, NCI panel, 48 h

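In this assay, cells in 96-well plates receive the compound at five concentrations for 48 hours. Endpoints are linearly interpolated between the surrounding concentrations. GI50 is the concentration that inhibits growth by half.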 Activity calls are given as the source filed them. Cut-off read from the data, not from the text of the source: active = GI50 up to about 1.1 µM and inactive = higher. Where only a bound is given, the exact number is not on record here.

`O=c1c2cccnc2ncn1CCCN1CCOCC1`: the GI50 with ACHN, with SF-539, in the assay on SK-OV-3, in the assay with SNB-75, with TK-10 and with SF-295 was > 100 µM (inactive) each time. For the same compound, the GI50 in the assay on SNB-19 is > 100 µM (inactive); with HCT-116, > 100 µM (inactive); in the assay on MOLT-4, > 10 µM (inactive); in the assay on K562, > 100 µM (inactive); in the assay with UO-31, > 100 µM (inactive); with CCRF-CEM, > 100 µM (inactive). In addition, the GI50 in the assay with RXF 393, with CAKI-1, with 786-0, in the assay with HT-29 and in the assay with U-251 was > 100 µM (inactive) each time.

With `COc1cc(-c2n[nH]cc2CCCC(=O)Nc2ccccc2[N+](=O)[O-])ccc1O`, the GI50 in the assay with ACHN is > 100 µM (inactive); in the assay with SF-539 it was 74.5 µM (inactive); with SK-OV-3, > 100 µM (inactive); in the assay on SNB-75 it was 20.8 µM (inactive); in the assay with RPMI-8226 it was 40.2 µM (inactive); with TK-10, > 100 µM (inactive). Moreover, the GI50 in the assay with SF-295 is > 100 µM (inactive); in the assay on HCT-116, 45.3 µM (inactive); in the assay on MOLT-4, 42.2 µM (inactive); with K562, 29.6 µM (inactive); with UO-31, 79.8 µM (inactive); with CCRF-CEM, 55.7 µM (inactive). Besides, the GI50 was 35.9 µM (inactive) with HL-60; > 100 µM (inactive) with CAKI-1; > 100 µM (inactive) in the assay on 786-0; > 100 µM (inactive) in the assay on HT-29; 75.2 µM (inactive) with U-251.

As for `N#CCCN(c1ccc(/C=C2\N=C(c3ccc(Cl)cc3)OC2=O)cc1)S(=O)(=O)c1ccccc1`, the GI50 in the assay with ACHN was > 100 µM (inactive); with SF-539 it was > 100 µM (inactive); in the assay on SK-OV-3 it was > 100 µM (inactive); in the assay on SNB-75, 76 µM (inactive); in the assay on RPMI-8226, > 100 µM (inactive); with TK-10, > 100 µM (inactive). In addition, the GI50 in the assay with SF-295, in the assay on SNB-19, in the assay on HCT-116, with MOLT-4, in the assay on K562 and with UO-31 was > 100 µM (inactive) each time. The GI50 with HL-60, in the assay on CAKI-1, with 786-0, in the assay on HT-29 and in the assay with U-251 was > 100 µM (inactive) throughout.

Turning to `CN(C)CCn1c2c3ccccc3ccc2c2oc(=O)c3ccccc3c21`, the GI50 was 5.24 µM (inactive) with ACHN; 2.5 µM (inactive) in the assay on SF-539; 0.895 µM (active) in the assay with SK-OV-3; 2.3 µM (inactive) with SNB-75; 4.35 µM (inactive) with RPMI-8226; 12.6 µM (inactive) in the assay with TK-10. Moreover, the GI50 was 9.04 µM (inactive) with SF-295; 10.3 µM (inactive) in the assay on SNB-19; 4.2 µM (inactive) in the assay with HCT-116; 2.62 µM (inactive) with MOLT-4; 4.48 µM (inactive) in the assay with K562; 1.61 µM (inactive) in the assay with UO-31. In addition, the GI50 was 4.26 µM (inactive) in the assay with CCRF-CEM; > 100 µM (inactive) with HL-60; 6.37 µM (inactive) with CAKI-1; 2.36 µM (inactive) in the assay on 786-0; 4.86 µM (inactive) in the assay on HT-29; 7.46 µM (inactive) with U-251.

Take `N=C(N)NS(=O)(=O)c1ccc(NC(=O)c2c3ccccc3nc3ccccc23)cc1`: the GI50 in the assay with ACHN, in the assay with SF-539, in the assay with SK-OV-3, in the assay on SNB-75, with RPMI-8226 and with TK-10 was > 100 µM (inactive) throughout. For the same compound, the GI50 in the assay on SF-295 is > 100 µM (inactive); in the assay with SNB-19, 86.5 µM (inactive); in the assay with HCT-116 it was > 100 µM (inactive); in the assay on MOLT-4 it was > 100 µM (inactive); with K562, > 10 µM (inactive); in the assay on UO-31, > 100 µM (inactive). In addition, the GI50 with CCRF-CEM, in the assay on CAKI-1, with 786-0, in the assay on HT-29 and in the assay with U-251 was > 100 µM (inactive) throughout.

For the compound `Cc1cccc(C(C)(C)C)c1NC(=O)CCc1n[nH]c(=S)o1`, the GI50 in the assay with ACHN was > 100 µM (inactive); in the assay on SF-539 it was > 100 µM (inactive); with SK-OV-3 it was > 100 µM (inactive); in the assay on SNB-75, > 100 µM (inactive); in the assay on RPMI-8226, 22.8 µM (inactive); in the assay with TK-10 it was > 100 µM (inactive). For the same compound, the GI50 with SF-295 was > 100 µM (inactive); in the assay on SNB-19, > 100 µM (inactive); with HCT-116, 17.6 µM (inactive); in the assay on MOLT-4 it was > 100 µM (inactive); in the assay on K562, 43.2 µM (inactive); in the assay on UO-31 it was > 100 µM (inactive). In addition, the GI50 in the assay on CCRF-CEM, in the assay with HL-60, in the assay on CAKI-1, in the assay on 786-0, in the assay on HT-29 and in the assay on U-251 was > 100 µM (inactive) in each case.

`CC1C=C(OC(=O)c2ccccc2)C(=O)C(n2cc(F)c(=O)[nH]c2=O)O1` (centres undefined): the GI50 in the assay with ACHN is 59.7 µM (inactive); in the assay with SF-539 it was 13.9 µM (inactive); with SK-OV-3, > 100 µM (inactive); in the assay on SNB-75 it was > 100 µM (inactive); with RPMI-8226 it was 23.9 µM (inactive); with TK-10 it was > 100 µM (inactive). Further, the GI50 is > 100 µM (inactive) in the assay with SF-295; > 100 µM (inactive) in the assay with SNB-19; 38.5 µM (inactive) in the assay with HCT-116; 51.5 µM (inactive) with MOLT-4; 76 µM (inactive) in the assay on K562; 87.7 µM (inactive) in the assay on UO-31. Besides, the GI50 in the assay on CCRF-CEM was 45.1 µM (inactive); with HL-60, 64.3 µM (inactive); in the assay on CAKI-1, 62.1 µM (inactive); in the assay on 786-0, 69.8 µM (inactive); in the assay with HT-29, 18.9 µM (inactive); in the assay with U-251, 97.3 µM (inactive).

On to `C/C(=C\c1ccccc1)C(=O)NCc1ccc(C(=O)NCCc2c[nH]c3ccccc23)cc1`, for which the GI50 was 38.1 µM (inactive) in the assay with ACHN; > 100 µM (inactive) in the assay on SF-539; > 100 µM (inactive) with SK-OV-3; > 100 µM (inactive) in the assay on SNB-75; > 100 µM (inactive) in the assay on RPMI-8226; 16.4 µM (inactive) with TK-10. Also, the GI50 is > 100 µM (inactive) in the assay with SF-295; > 100 µM (inactive) in the assay on SNB-19; 58.3 µM (inactive) in the assay with HCT-116; 60.7 µM (inactive) in the assay with MOLT-4; > 100 µM (inactive) in the assay with K562; 51.6 µM (inactive) in the assay on UO-31. Moreover, the GI50 with CCRF-CEM was 2.39 µM (inactive); in the assay on RXF 393, > 100 µM (inactive); in the assay on CAKI-1, > 100 µM (inactive); with 786-0, 76 µM (inactive); with HT-29 it was > 100 µM (inactive); in the assay on U-251, > 100 µM (inactive).

With `CCCc1n[nH]c(CCC(=O)N(Cc2ccccc2)Cc2ccccc2)c1CC`, the GI50 with ACHN, in the assay with SF-539, in the assay on SK-OV-3, in the assay with SNB-75, with RPMI-8226 and with TK-10 was > 100 µM (inactive) each time. Moreover, the GI50 with SF-295, in the assay on SNB-19, in the assay with MOLT-4, in the assay on K562, in the assay on UO-31 and in the assay on CCRF-CEM was > 100 µM (inactive) throughout. Also, the GI50 in the assay with RXF 393, in the assay with CAKI-1, with 786-0 and with HT-29 was > 100 µM (inactive) in each case.

For `NC(N)NCCCc1cn2c(n1)C1CCCN1C(=O)C2Cc1ccccc1` (centres undefined), the GI50 in the assay with ACHN was > 100 µM (inactive); in the assay on SF-539, > 100 µM (inactive); with SK-OV-3, > 100 µM (inactive); in the assay with SNB-75, 61 µM (inactive); with RPMI-8226, > 100 µM (inactive); in the assay on TK-10, > 100 µM (inactive). Also, the GI50 in the assay with SF-295, with SNB-19, in the assay with HCT-116, in the assay on MOLT-4, in the assay with K562 and in the assay with UO-31 was > 100 µM (inactive) each time. The GI50 with CCRF-CEM, with RXF 393, with CAKI-1, in the assay on 786-0, in the assay on HT-29 and in the assay with U-251 was > 100 µM (inactive) in each case.

For `CCSC1=CC2(O)N(CCc3ccc(OC)c(OC)c3)C(=O)CC2(C(=O)OC)CC1=O` (centres undefined), the GI50 is 29.9 µM (inactive) in the assay on ACHN; 26.3 µM (inactive) in the assay on SF-539; 86.9 µM (inactive) in the assay on SK-OV-3; 29.4 µM (inactive) with RPMI-8226; 19.5 µM (inactive) in the assay with TK-10; > 100 µM (inactive) in the assay with SF-295. Also, the GI50 was 92.9 µM (inactive) in the assay on SNB-19; 17.9 µM (inactive) in the assay on HCT-116; 23.8 µM (inactive) in the assay with MOLT-4; 37.9 µM (inactive) with K562; 18.5 µM (inactive) in the assay on UO-31; 34 µM (inactive) in the assay with CCRF-CEM. Besides, the GI50 in the assay with HL-60 was 32.7 µM (inactive); with CAKI-1 it was 70.5 µM (inactive); with 786-0 it was 19.3 µM (inactive); in the assay on HT-29, 18.6 µM (inactive); in the assay on U-251, 23.4 µM (inactive).

For `COc1ccc(/C=C/c2cc(OC)c(OC(C)=O)c(OC)c2)cc1`, the GI50 was 33 µM (inactive) in the assay on ACHN; > 10 µM (inactive) in the assay with SF-539; 37.3 µM (inactive) in the assay on SK-OV-3; 18.5 µM (inactive) in the assay with SNB-75; 31.8 µM (inactive) with RPMI-8226; 25.1 µM (inactive) in the assay with SNB-19. The GI50 in the assay with HCT-116 was 30.8 µM (inactive); in the assay on MOLT-4, 20.3 µM (inactive); with UO-31 it was 20.3 µM (inactive); with CCRF-CEM it was 30.8 µM (inactive); in the assay on 786-0 it was 33.7 µM (inactive); in the assay on HT-29, 26.5 µM (inactive). Also, in the assay on U-251, the GI50 is 17.5 µM (inactive).

Values taken from ChEMBL document CHEMBL1201862, “PubChem BioAssay data set” (2004).
